Laboratory results: patent US20150291532A1, “AMORPHOUS FORM OF QUINOLINE DERIVATIVE, AND METHOD FOR PRODUCING SAME” (Eisai R&D Management Co., Ltd., priority 2012, published 2015)

Key:
[1] = Evaluation of solubility: dissolved concentration by the Paddle method, HPLC; assay type: physicochemical; settings: approx. 40 mg in 100 mL fasting artificial intestinal juice pH 6.5, 37° C., 50 rpm; for Concentration of compound A at sampling time 5 minute: 5 min; for Concentration of compound A at sampling time 10 minute: 10 min; for Concentration of compound A at sampling time 20 minute: 20 min; for Concentration of compound A at sampling time 30 minute: 30 min; for Concentration of compound A at sampling time 45 minute: 45 min; for Concentration of compound A at sampling time 60 minute: 60 min
Experimental: The dissolved concentration of amorphous compound A obtained in Example 1 was measured by the Paddle method. Approximately 40 mg of amorphous compound A was loaded into an equipment for the elution test, and 500 μL of solution was sampled at 5, 10, 20, 30, 45 and 60 minutes each. The concentration of compound A in the solution was measured by HPLC. As a comparative control there was used B-form crystals of 4-(3-chloro-4-(cyclopropylaminocarbonyl)aminophenoxy)-7-methoxy-6-quinolinecarboxamide (see Patent Literature 2). Solvent: 100 mL of fasting artificial intestinal juice (buffer with pH 6.5, containing 29 mM NaH2PO4, 100 mM KCl, 7.5 mM lecithin, and 30 mM sodium taurocholate) Temperature: 37° C. Paddle rotational speed: 50 rpm Column: YMC-UltraHT C18 (product of YMC Inc., inner diameter: 2.0 mm, column length: 50 mm, particle size: 2 μm) Column temperature: 40° C. (using a column oven) Flow rate: 0.42 mL/min Mobile phase: Solution A and solution B were used for elution with the linear gradient shown in Table 1. Solution A H2O: CH3CN:HClO4*=990:10:1 (V/V/V) Solution B CH3CN:H2O:HClO4*=900:100:1 (V/V/V) (*: 70% aqueous solution) Injection volume: 10 μL Detection: Ultraviolet absorptiometer (measuring wavelength: 252 nm). Autosampler temperature: 10° C.

[2] = as above; assay type: physicochemical; settings: general statement of advantageous effect

| Concentration of compound A at sampling time 5 minute [1] [ng/mL] | Concentration of compound A at sampling time 10 minute [1] [ng/mL] | Concentration of compound A at sampling time 20 minute [1] [ng/mL] | Concentration of compound A at sampling time 30 minute [1] [ng/mL] | Concentration of compound A at sampling time 45 minute [1] [ng/mL] | Concentration of compound A at sampling time 60 minute [1] [ng/mL] | Solubility in water [2] | SMILES |
| --- | --- | --- | --- | --- | --- | --- | --- |
| 4900 | 5360 | 5630 | 5520 | 5410 | 5310 | excellent solubility in water | COc1cc2nccc(Oc3ccc(NC(=O)NC4CC4)c(Cl)c3)c2cc1C(N)=O [Amorphous A, 4-(3-chloro-4-(cyclopropylaminocarbonyl)aminophenoxy)-7-methoxy-6-quinolinecarboxamide] |
| 810 | 870 | 930 | 940 | 980 | 1000 |  | COc1cc2nccc(Oc3ccc(NC(=O)NC4CC4)c(Cl)c3)c2cc1C(N)=O [Crystalline B, 4-(3-chloro-4-(cyclopropylaminocarbonyl)aminophenoxy)-7-methoxy-6-quinolinecarboxamide, reference compound] |
